Measurements reported in publication PMC3177992 (Chemical research in toxicology, 2011).

Experiments:
Format in all cases: in vitro ADME
UGT1A8 = target: T1, UGT1A8 (Homo sapiens, UniProt Q9HAW9); assay: Glucuronidation assay, UGT1A8-over-expressing HEK293 cell homogenate
T1 sequence (Q9HAW9 26-530): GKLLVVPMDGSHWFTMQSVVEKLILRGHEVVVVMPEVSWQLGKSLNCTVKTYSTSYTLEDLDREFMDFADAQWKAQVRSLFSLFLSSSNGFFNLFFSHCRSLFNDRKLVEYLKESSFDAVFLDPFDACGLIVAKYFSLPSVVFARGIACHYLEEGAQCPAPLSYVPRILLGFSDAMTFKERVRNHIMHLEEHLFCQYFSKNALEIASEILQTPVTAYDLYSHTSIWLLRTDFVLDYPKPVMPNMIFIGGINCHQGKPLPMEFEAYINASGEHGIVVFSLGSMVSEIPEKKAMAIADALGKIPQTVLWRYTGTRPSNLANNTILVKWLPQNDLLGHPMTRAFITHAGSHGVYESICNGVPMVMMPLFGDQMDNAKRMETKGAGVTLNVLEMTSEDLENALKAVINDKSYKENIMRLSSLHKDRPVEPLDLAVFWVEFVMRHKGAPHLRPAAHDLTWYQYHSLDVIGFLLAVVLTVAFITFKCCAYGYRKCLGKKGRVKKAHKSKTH

UGT1A7 = target: T2, UGT1A7 (Homo sapiens, UniProt Q9HAW7); assay: Glucuronidation assay, UGT1A7-over-expressing HEK293 cell homogenate
T2 sequence (Q9HAW7 26-530): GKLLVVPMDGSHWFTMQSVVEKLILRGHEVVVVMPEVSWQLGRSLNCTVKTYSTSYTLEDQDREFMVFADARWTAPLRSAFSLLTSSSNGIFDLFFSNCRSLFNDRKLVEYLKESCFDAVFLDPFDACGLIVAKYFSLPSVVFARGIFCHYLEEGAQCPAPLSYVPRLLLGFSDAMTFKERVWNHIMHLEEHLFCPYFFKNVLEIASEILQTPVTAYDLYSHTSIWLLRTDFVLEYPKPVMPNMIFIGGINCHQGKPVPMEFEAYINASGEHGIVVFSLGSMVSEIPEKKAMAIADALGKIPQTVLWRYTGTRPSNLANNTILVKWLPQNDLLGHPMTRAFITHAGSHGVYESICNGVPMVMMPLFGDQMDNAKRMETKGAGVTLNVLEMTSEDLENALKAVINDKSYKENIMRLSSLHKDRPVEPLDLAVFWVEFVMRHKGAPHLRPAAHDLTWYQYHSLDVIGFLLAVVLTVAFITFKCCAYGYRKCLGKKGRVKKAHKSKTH

UGT2B7 = target: T3, UGT2B7 (Homo sapiens, UniProt P16662); assay: Glucuronidation assay, UGT2B7-over-expressing HEK293 cell homogenate
T3 sequence (P16662 24-529): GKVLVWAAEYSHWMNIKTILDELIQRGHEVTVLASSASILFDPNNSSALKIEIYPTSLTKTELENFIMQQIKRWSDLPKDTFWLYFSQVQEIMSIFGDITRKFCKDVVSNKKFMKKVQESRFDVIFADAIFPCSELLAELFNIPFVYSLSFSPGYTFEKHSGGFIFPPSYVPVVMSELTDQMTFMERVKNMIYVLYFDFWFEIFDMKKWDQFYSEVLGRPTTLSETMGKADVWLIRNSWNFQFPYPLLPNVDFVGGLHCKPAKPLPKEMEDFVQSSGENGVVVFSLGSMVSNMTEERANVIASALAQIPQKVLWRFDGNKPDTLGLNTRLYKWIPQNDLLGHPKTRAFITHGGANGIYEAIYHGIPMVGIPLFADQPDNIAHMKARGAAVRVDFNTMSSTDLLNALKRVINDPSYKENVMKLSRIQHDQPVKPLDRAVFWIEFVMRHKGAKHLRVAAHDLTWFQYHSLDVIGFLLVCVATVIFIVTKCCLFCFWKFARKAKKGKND

UGT1A10 = target: T4, UGT1A10 (Homo sapiens, UniProt Q9HAW8); assay: Glucuronidation assay, UGT1A10-over-expressing HEK293 cell homogenate
T4 sequence (Q9HAW8 26-530): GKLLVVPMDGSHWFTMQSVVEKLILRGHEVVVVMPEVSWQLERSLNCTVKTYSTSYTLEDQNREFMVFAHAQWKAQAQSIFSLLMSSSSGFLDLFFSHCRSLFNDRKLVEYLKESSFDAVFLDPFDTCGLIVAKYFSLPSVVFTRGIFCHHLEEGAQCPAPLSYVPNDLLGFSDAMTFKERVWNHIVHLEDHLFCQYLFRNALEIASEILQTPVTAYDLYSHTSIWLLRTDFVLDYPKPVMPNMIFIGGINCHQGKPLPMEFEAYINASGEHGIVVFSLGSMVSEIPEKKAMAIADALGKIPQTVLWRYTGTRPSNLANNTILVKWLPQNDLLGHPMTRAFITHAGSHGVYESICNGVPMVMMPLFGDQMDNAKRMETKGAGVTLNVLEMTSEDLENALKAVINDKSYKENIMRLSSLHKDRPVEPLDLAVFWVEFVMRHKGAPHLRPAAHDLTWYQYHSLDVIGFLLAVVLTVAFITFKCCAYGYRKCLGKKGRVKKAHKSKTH

UGT1A9 = target: T5, UGT1A9 (Homo sapiens, UniProt O60656); assay: Glucuronidation assay, UGT1A9-over-expressing HEK293 cell homogenate
T5 sequence (O60656 26-530): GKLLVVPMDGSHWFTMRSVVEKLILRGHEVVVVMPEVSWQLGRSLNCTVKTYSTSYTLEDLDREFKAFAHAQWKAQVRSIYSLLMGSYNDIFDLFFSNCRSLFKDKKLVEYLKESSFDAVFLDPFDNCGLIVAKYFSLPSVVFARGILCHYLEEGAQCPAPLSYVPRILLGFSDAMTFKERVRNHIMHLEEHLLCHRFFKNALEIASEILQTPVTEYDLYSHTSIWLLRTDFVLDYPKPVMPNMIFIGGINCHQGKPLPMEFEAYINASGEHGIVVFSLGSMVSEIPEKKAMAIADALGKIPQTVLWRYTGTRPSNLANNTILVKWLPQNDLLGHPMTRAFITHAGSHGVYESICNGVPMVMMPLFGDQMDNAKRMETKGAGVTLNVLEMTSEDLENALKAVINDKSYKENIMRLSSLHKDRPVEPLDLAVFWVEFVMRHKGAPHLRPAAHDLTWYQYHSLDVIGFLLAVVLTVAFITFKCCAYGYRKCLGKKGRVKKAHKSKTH

UGT1A1 = target: T6, UGT1A1 (Homo sapiens, UniProt P22309); assay: Glucuronidation assay, UGT1A1-over-expressing HEK293 cell homogenate
T6 sequence (P22309 26-533): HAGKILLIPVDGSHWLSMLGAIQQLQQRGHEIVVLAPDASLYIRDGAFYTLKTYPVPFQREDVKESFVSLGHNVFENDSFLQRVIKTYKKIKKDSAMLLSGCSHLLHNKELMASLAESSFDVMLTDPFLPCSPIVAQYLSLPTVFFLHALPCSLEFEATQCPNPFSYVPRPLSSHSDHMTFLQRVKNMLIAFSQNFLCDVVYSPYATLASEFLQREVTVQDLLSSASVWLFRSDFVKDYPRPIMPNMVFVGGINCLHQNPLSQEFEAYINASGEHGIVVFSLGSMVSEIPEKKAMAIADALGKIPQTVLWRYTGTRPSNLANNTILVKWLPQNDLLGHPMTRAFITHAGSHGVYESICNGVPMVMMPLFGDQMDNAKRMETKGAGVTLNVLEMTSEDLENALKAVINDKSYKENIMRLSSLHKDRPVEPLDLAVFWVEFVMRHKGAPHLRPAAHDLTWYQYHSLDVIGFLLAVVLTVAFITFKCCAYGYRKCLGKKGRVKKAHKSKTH

[1] = glucuronide formation from the respective diol enantiomer

Km (UGT1A8): 194 ± 39 µM
ratio of (+)-DB[a,l]P-11-Gluc : (−)-DB[a,l]P-11-Gluc formation (UGT1A8): 48
kcat/Km (UGT1A8; [1]): 0.80 ± 0.12 mM⁻¹ min⁻¹
Km (UGT1A7): 43 ± 7 µM
ratio of (+)-DB[a,l]P-11-Gluc : (−)-DB[a,l]P-11-Gluc formation (UGT1A7): 67
kcat/Km (UGT1A7; [1]): 0.23 ± 0.11 mM⁻¹ min⁻¹
Km (UGT2B7): 175 ± 25 µM
kcat/Km (UGT2B7; [1]): 0.38 ± 0.01 mM⁻¹ min⁻¹
Km (UGT1A10): 33 ± 9.8 µM
ratio of (+)-DB[a,l]P-11-Gluc : (+)-DB[a,l]P-12-Gluc : (−)-DB[a,l]P-11-Gluc formation (UGT1A10): 19
fold higher activity (kcat/KM) of UGT1A10 compared to UGTs 1A7 and 1A8 (UGT1A10; comparing kcat/KM values): 12–72 fold
kcat/Km (UGT1A10; [1]): 9.5 ± 2.0 mM⁻¹ min⁻¹
Km (UGT1A9): 170 ± 10 nM
ratio of (+)-DB[a,l]P-11-Gluc : (−)-DB[a,l]P-11-Gluc formation (UGT1A9): 30
fold higher activity (kcat/KM) of UGT1A9 than UGT1A1 (UGT1A9; comparing kcat/KM values): approximately 489 fold
kcat/Km (UGT1A9; [1]): 2980 ± 146 mM⁻¹ min⁻¹
Km (UGT1A1): 76 ± 21 µM
ratio of (+)-DB[a,l]P-11-Gluc : (+)-DB[a,l]P-12-Gluc : (−)-DB[a,l]P-11-Gluc formation (UGT1A1): 52
kcat/Km (UGT1A1; [1]): 6.1 ± 1.5 mM⁻¹ min⁻¹
Compound: O=C(O)[C@H]1O[C@@H](O[C@H]2c3cc4ccc5cccc6c7ccccc7c(c3C=C[C@@H]2O)c4c56)[C@H](O)[C@@H](O)[C@@H]1O (relative stereo) [(+)-DB[a,l]P-11-Gluc, DB[a,l]P-(+)-trans-11-Gluc,12-ol]
